# Measurements as given in patent publication US20230183193A1, “4-DIFLUOROMETHYL BENZOYL AMIDES WITH HERBICIDAL ACTION” (BAYER CROPSCIENCE AKTIENGESELLSCHAFT, priority 2017, published 2023).
# Legend:
# Type in all cases: in vivo
# [1] = test system: Amaranthus retroflexus; assay: Pre-emergence herbicidal action, AMARE; conditions: dosage 320 g/ha, scored visually after 3 weeks vs untreated controls
# Source text: (§1) 1. Pre-Emergence Herbicidal Action Against Harmful Plants Seeds of monocotyledonous and dicotyledonous weed plants and crop plants are laid out in sandy loam soil in wood-fiber pots and covered with soil. The compounds of the invention, formulated in the form of wettable powders (WP) or as emulsion concentrates (EC), are then applied to the surface of the covering soil in the form of an aqueous suspension or emulsion at a water application rate equating to […], with addition of 0.2% wetting agent. After the treatment, the pots are placed in a greenhouse and kept under good growth conditions for the trial plants. The damage to the test plants is scored visually after a test period of 3 weeks by comparison with untreated controls (herbicidal activity in percent (%): 100% activity=the plants have died, 0% activity=like control plants).
# (§2) For comparison, the herbicidal activity of numerous compounds according to the invention was tested with the structurally closest compounds known from the documents WO 2011/035874, WO 2012/028579 and WO 2012/126932, by the pre- and post-emergence method.
# [2] = test system: Alopecurus myosuroides; assay: Post-emergence herbicidal action, ALOMY; conditions: 80 g/ha, Table C
# Method: (§3) Seeds of monocotyledonous and dicotyledonous weed and crop plants are laid out in sandy loam soil in wood-fiber pots, covered with soil and cultivated in a greenhouse under good growth conditions. 2 to 3 weeks after sowing, the test plants are treated at the one-leaf stage. The compounds of the invention, formulated in the form of wettable powders (WP) or as emulsion concentrates (EC), are then sprayed onto the green parts of the plants in the form of an aqueous suspension or emulsion at a water application rate equating to […], with addition of 0.2% wetting agent. After the test plants have been left to stand in the greenhouse under optimal growth conditions for about 3 weeks, the action of the preparations is assessed visually in comparison to untreated controls (herbicidal action in percent (%): 100% activity=the plants have died, 0% activity=like control plants). […] At the same time, inventive compounds leave Gramineae crops such as barley, wheat, rye, millet/sorghum, corn or rice virtually undamaged when applied post-emergence, even at high active compound dosages. In addition, some substances are also harmless to dicotyledonous crops such as soya, cotton, oilseed rape, sugar beet or potatoes. Some of the compounds according to the invention have high selectivity and are therefore suitable for controlling unwanted vegetation in agricultural crops by the post-emergence method. The data of Tables C and D below illustrate, in an exemplary manner, the […] herbicidal action of the compounds according to the invention, the herbicidal activity being stated in percent.
# as §2
# [3] = test system: Setaria viridis; assay: Pre-emergence herbicidal action, SETVI; conditions: dosage 320 g/ha, scored visually after 3 weeks vs untreated controls
# Source text: as §1, §2
# [4] = test system: Viola tricolor; assay: Pre-emergence herbicidal action, VIOTR; conditions: dosage 320 g/ha, scored visually after 3 weeks vs untreated controls
# Source text: as §1, §2
# [5] = test system: ECHCG; assay: Post-emergence herbicidal action, ECHCG; conditions: 80 g/ha, Table C
# Method: as §3
# [6] = test system: Cyperus serotinus; assay: Pre-emergence herbicidal action, CYPES; conditions: dosage 320 g/ha, scored visually after 3 weeks vs untreated controls
# Source text: as §1, §2
# [7] = test system: Matricaria inodora; assay: Pre-emergence herbicidal action, MATIN; conditions: dosage 320 g/ha, scored visually after 3 weeks vs untreated controls
# Source text: as §1, §2
# [8] = test system: Abutilon theophrasti; assay: Post-emergence herbicidal action, ABUTH; conditions: 80 g/ha, Table D
# Method: as §3, §2
# [9] = test system: Stellaria media; assay: Pre-emergence herbicidal action, STEME; conditions: dosage 320 g/ha, scored visually after 3 weeks vs untreated controls
# Source text: as §1, §2
# [10] = test system: Viola tricolor; assay: Post-emergence herbicidal action, VIOTR; conditions: 80 g/ha, Table D
# Method: as §3, §2
# [11] = test system: Abutilon theophrasti; assay: Pre-emergence herbicidal action, ABUTH; conditions: dosage 320 g/ha, scored visually after 3 weeks vs untreated controls
# Source text: as §1, §2
# [12] = test system: Amaranthus retroflexus; assay: Post-emergence herbicidal action, AMARE; conditions: 80 g/ha, Table D
# Method: as §3, §2
# [13] = test system: Avena fatua; assay: Pre-emergence herbicidal action, AVEFA; conditions: dosage 320 g/ha, scored visually after 3 weeks vs untreated controls
# Source text: as §1, §2
# [14] = test system: Setaria viridis; assay: Post-emergence herbicidal action, SETVI; conditions: 80 g/ha, Table C
# Method: as §3, §2
# [15] = test system: Stellaria media; assay: Post-emergence herbicidal action, STEME; conditions: 80 g/ha, Table D
# Method: as §3, §2
# [16] = test system: Alopecurus myosuroides; assay: Pre-emergence herbicidal action, ALOMY; conditions: dosage 320 g/ha, scored visually after 3 weeks vs untreated controls
# Source text: as §1, §2
# [17] = test system: Avena fatua; assay: Post-emergence herbicidal action, AVEFA; conditions: 80 g/ha, Table C
# Method: as §3, §2
# [18] = test system: Pharbitis purpureum; assay: Post-emergence herbicidal action, PHBPU; conditions: 80 g/ha, Table D
# Method: as §3, §2
Compound,herbicidal activity AMARE [1],herbicidal activity ALOMY [2],herbicidal activity SETVI [3],herbicidal activity VIOTR [4],Herbicidal activity ECHCG [5],herbicidal activity CYPES [6],herbicidal activity MATIN [7],herbicidal activity ABUTH [8],Herbicidal activity STEME [9],herbicidal activity VIOTR [10],herbicidal activity ABUTH [11],herbicidal activity AMARE [12],herbicidal activity AVEFA [13],herbicidal activity SETVI [14],Herbicidal activity STEME [15],herbicidal activity ALOMY [16],herbicidal activity AVEFA [17],Herbicidal activity PHBPU [18]
CCSc1c(C(F)F)ccc(C(=O)Nc2nnnn2C)c1CC [Example 1-16],100%,90%,100%,100%,90%,100%,100%,100%,100%,100%,100%,100%,100%,90%,100%,100%,90%,
CCS(=O)(=O)c1c(C(F)F)ccc(C(=O)Nc2nnnn2C)c1I [Example 1-78],100%,90%,100%,100%,100%,100%,100%,80%,,90%,100%,100%,100%,100%,100%,100%,80%,100%
CCn1nnnc1NC(=O)c1ccc(C(F)F)c(SC)c1C [Example 2-1],100%,90%,100%,100%,90%,,100%,90%,,100%,100%,100%,100%,90%,100%,90%,100%,100%
CCSc1c(C(F)F)ccc(C(=O)Nc2nnnn2CC)c1C [Example 2-4],100%,90%,100%,100%,90%,100%,100%,,90%,100%,100%,,100%,90%,100%,100%,100%,100%
CCSc1c(C(F)F)ccc(C(=O)Nc2nnnn2CC)c1F [Example 2-40],100%,80%,100%,100%,100%,,100%,100%,100%,100%,100%,100%,,100%,100%,,,90%
CCn1nnnc1NC(=O)c1ccc(C(F)F)c([S+](C)[O-])c1Cl (stereo not shown) [Example 2-50],100%,,100%,100%,90%,100%,100%,100%,100%,100%,100%,100%,100%,100%,100%,100%,100%,100%
CCn1nnnc1NC(=O)c1ccc(C(F)F)c(S(C)(=O)=O)c1Cl [Example 2-51],100%,,100%,100%,90%,90%,100%,100%,90%,100%,100%,100%,100%,90%,100%,90%,90%,90%
CCCn1nnnc1NC(=O)c1ccc(C(F)F)c([S+](C)[O-])c1C (stereo not shown) [Example 3-2],100%,90%,100%,100%,90%,80%,100%,80%,90%,100%,100%,,90%,100%,100%,90%,90%,90%
CCSc1c(C(F)F)ccc(C(=O)Nc2nnc(C)o2)c1C [Example 7-4],100%,90%,100%,100%,100%,,80%,,90%,100%,100%,100%,,100%,90%,90%,90%,
CCc1c(C(=O)Nc2nnc(C)o2)ccc(C(F)F)c1SC [Example 7-11],100%,90%,100%,100%,90%,90%,,90%,80%,100%,100%,90%,90%,90%,90%,80%,,90%
CCSc1c(C(F)F)ccc(C(=O)Nc2nnc(C)o2)c1Cl [Example 7-50],90%,90%,100%,100%,100%,90%,90%,100%,100%,100%,100%,90%,100%,100%,90%,100%,90%,
